Experimental data taken from patent US20250346592A1 (Celgene Corporation, priority 2022, published 2025).

Molecular target: hPAD4 enzyme (Homo sapiens (Human), UniProt Q9UM07)
Assay: RFMS2 assay (RapidFire mass spectrometry, TSTGGRQGSHH peptide substrate)
Type: biochemical
Conditions: 35 nM recombinant human PAD4, 500 μM TSTGGRQGSHH peptide, 30 minutes at room temperature; read-out: RFMS 2 IC50
Experimental: Stock compounds were dissolved and stored in 100% DMSO. Compound solutions were prepared via serial dilution at 3-fold intervals in DMSO with top compound concentration at 20 μM in each assay. 0.25 μl of compound solution was transferred from the compound plate to the assay plate by using an acoustic dispenser.
• Total reaction volume: 25 μl • Assay buffer: […] pH 7.4, 200 mM NaCl, 2 mM CaCl2, 5 mM DTT • 35 nM recombinant human PAD4 • 500 μM TSTGGRQGSHH peptide • 1.2% DMSO • Stop solution: 10% formic acid
Reaction mixtures were incubated at room temperature for 30 minutes. 10 μl each of the reaction mixtures was then mixed with 40 μl of 10% formic acid in a microtiter plate. The plate was frozen at −80° C. before shipping out on dry ice for RapidFire mass spectroscopy analysis.
Thawed samples were loaded onto the Rapid Fire 300 system (Agilent) wherein they were first sipped for 250 ms and then loaded onto a Agilent “C” (C18) cartridge using a mobile phase of water containing 0.09% formic acid/0.01% trifluoroacetic acid for 3000 ms desalting flowing at a rate of 1.5 ml/min. Once the samples were loaded and washed, a mobile phase of acetonitrile containing 0.09% formic acid/0.01% trifluoroacetic acid was used to elute the samples directly onto a Sciex API4000 triple quadrupole mass spectrometer for 3000 ms at a flow rate of 1.25 ml/min.
MRM transitions for substrate and product were monitored in positive ESI mode at m/z=562.3/969.7 and m/z=562.8/541.3 respectively. The dwell time for each transition was set at 100 ms, and the ESI voltage was used at 5500 with a source temperature of 650° C. Extracted ion peaks for each transition were integrated using the Rapid Fire Integrator software.
Compounds having an activity designated as “A” provided an IC50≤10 nM; compounds having an activity designated as “B” provided an IC50 11-100 nM; compounds having an activity designated as “C” provided an IC50 101-500 nM; compounds having an activity designated as “D” provided an IC50 501-1000 nM; compounds having an activity designated as “E” provided an IC50>1000 nM.

hPAD4 enzyme, sequence (Q9UM07 whole entry): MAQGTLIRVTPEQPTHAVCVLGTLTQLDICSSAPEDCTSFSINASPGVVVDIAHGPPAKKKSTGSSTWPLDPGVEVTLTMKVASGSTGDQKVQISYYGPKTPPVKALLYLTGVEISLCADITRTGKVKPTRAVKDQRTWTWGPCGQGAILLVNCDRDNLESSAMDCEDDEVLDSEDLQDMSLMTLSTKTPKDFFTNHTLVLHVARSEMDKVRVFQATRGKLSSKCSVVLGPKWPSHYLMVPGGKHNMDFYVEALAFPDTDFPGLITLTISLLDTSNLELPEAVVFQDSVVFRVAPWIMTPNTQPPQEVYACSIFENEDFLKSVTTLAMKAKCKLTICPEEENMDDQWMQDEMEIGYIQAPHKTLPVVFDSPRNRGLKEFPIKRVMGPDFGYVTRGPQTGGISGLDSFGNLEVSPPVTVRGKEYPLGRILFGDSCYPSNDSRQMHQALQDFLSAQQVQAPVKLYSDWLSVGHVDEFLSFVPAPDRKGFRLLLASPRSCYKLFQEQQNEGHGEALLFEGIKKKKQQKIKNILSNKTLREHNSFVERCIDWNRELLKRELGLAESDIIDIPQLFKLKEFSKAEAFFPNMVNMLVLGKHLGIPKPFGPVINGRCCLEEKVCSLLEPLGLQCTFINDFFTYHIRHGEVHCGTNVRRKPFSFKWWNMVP

IC50	Compound
> 1000 nM	C[C@@H](O)CN1CCc2cc3c(cc2C1=O)nc(-c1cc2ccccc2n1CC1CC1)n3C [Example 85, (R)-2-(1-(cyclopropylmethyl)-1H-indol-2-yl)-6-(2-hydroxypropyl)-1-methyl-1,6,7,8-tetrahydro-5H-imidazo[4,5-g]isoquinolin-5-one]
501 to 1000 nM	C[C@@H](N)CN1CCc2cc3c(cc2C1=O)nc(-c1cc2cccc(C(F)(F)F)c2n1CC1CC1)n3C [Example 36, (R)-6-(2-aminopropyl)-2-(1-(cyclopropylmethyl)-7-(trifluoromethyl)-1H-indol-2-yl)-1-methyl-1,6,7,8-tetrahydro-5H-imidazo[4,5-g]isoquinolin-5-one]
501 to 1000 nM	COc1cccc2cc(-c3nc4cc5c(cc4n3C)CCN(C[C@H](N)CF)C5=O)n(CC(C)OC)c12 (single isomer, unassigned) [Example 131]
501 to 1000 nM	CC(C)Cn1c(-c2nc3cc4c(cc3n2C)CCN(C[C@@H](C)N)C4=O)cc2ccccc21 [Example 74, (R)-6-(2-aminopropyl)-2-(1-isobutyl-1H-indol-2-yl)-1-methyl-1,6,7,8-tetrahydro-5H-imidazo[4,5-g]isoquinolin-5-one]
11 to 100 nM	Cc1ncn(CCOc2cccc3cc(-c4nc5cc6c(cc5n4C)CCN(C[C@H](N)CF)C6=O)n(CC4CC4)c23)n1 [Example 164, (S)-6-(2-amino-3-fluoropropyl)-2-(1-(cyclopropyl-methyl)-7-(2-(3-methyl-1H-1,2,4-triazol-1-yl)ethoxy)-1H-indol-2-yl)-1-methyl-1,6,7,8-tetrahydro-5H-imidazo[4,5-g]isoquinolin-5-one]
> 1000 nM	CCn1c(-c2nc3cc4c(cc3n2C)CCN(C[C@@H](C)N)C4=O)cc2cccnc21 [Example 79, (R)-6-(2-aminopropyl)-2-(1-ethyl-1H-pyrrolo[2,3-b]pyridin-2-yl)-1-methyl-1,6,7,8-tetrahydro-5H-imidazo[4,5-g]isoquinolin-5-one]
501 to 1000 nM	COCCn1c(-c2nc3cc4c(cc3n2C)CCN(C[C@@H](C)N)C4=O)cc2cccc(C)c21 [Example 87, (R)-6-(2-aminopropyl)-2-(1-(2-methoxyethyl)-7-methyl-1H-indol-2-yl)-1-methyl-1,6,7,8-tetrahydro-5H-imidazo[4,5-g]isoquinolin-5-one]
101 to 500 nM	COc1cccc2cc(-c3nc4cc5c(cc4n3C)CCN(C[C@H](N)CF)C5=O)n(C[C@@H]3CCCO3)c12 [Example 133, 6-((S)-2-amino-3-fluoropropyl)-2-(7-methoxy-1-(((S)-tetrahydrofuran-2-yl)methyl)-1H-indol-2-yl)-1-methyl-1,6,7,8-tetrahydro-5H-imidazo[4,5-g]isoquinolin-5-one]
101 to 500 nM	Cn1c(-c2cc3cccc(OC[C@@H]4CCC(=O)N4)c3n2CC2CC2)nc2cc3c(cc21)CCN(C[C@H](N)CF)C3=O [Example 156, 6-((S)-2-amino-3-fluoropropyl)-2-(1-(cyclopropyl-methyl)-7-(((S)-5-oxopyrrolidin-2-yl)methoxy)-1H-indol-2-yl)-1-methyl-1,6,7,8-tetrahydro-5H-imidazo [4,5-g]isoquinolin-5-one]
101 to 500 nM	Cn1c(-c2cc3cccc(OCCc4cocn4)c3n2CC2CC2)nc2cc3c(cc21)CCN(C[C@H](N)CF)C3=O [Example 196, (S)-6-(2-amino-3-fluoropropyl)-2-(1-(cyclopropylmethyl)-7-(2-(oxazol-4-yl)ethoxy)-1H-indol-2-yl)-1-methyl-1,6,7,8-tetrahydro-5H-imidazo[4,5-g]isoquinolin-5-one]
> 1000 nM	CCn1c(-c2nc3cc4c(cc3n2C)CCN(C[C@H](N)CF)C4=O)cc2ccccc21 [Example 134, (S)-6-(2-amino-3-fluoropropyl)-2-(1-ethyl-1H-indol-2-yl)-1-methyl-1,6,7,8-tetrahydro-5H-imidazo[4,5-g]isoquinolin-5-one]
> 1000 nM	COCCn1c(-c2nc3cc4c(cc3n2C)CCN(C[C@H](N)CF)C4=O)cc2ccc(OC)nc21 [Example 105, (S)-6-(2-amino-3-fluoropropyl)-2-(6-methoxy-1-(2-methoxyethyl)-1H-pyrrolo[2,3-b]pyridin-2-yl)-1-methyl-1,6,7,8-tetrahydro-5H-imidazo[4,5-g]isoquinolin-5-one]
101 to 500 nM	CCn1c(-c2nc3cc4c(cc3n2C)CCN(C[C@@H](C)N)C4=O)cc2cccc(OC)c21 [Example 90, (R)-6-(2-aminopropyl)-2-(1-ethyl-7-methoxy-1H-indol-2-yl)-1-methyl-1,6,7,8-tetrahydro-5H-imidazo[4,5-g]isoquinolin-5-one]
101 to 500 nM	COc1cccc2cc(-c3nc4cc5c(cc4n3C)CCN(C[C@H](N)CF)C5=O)n(Cc3coc(C)n3)c12 [Example 145, (S)-6-(2-amino-3-fluoropropyl)-2-(7-methoxy-1-((2-methyloxazol-4-yl)methyl)-1H-indol-2-yl)-1-methyl-1,6,7,8-tetrahydro-5H-imidazo[4,5-g]isoquinolin-5-one]
501 to 1000 nM	C[C@@H](N)CN1CCc2cc3c(cc2C1=O)nc(-c1cc2cccc(C#N)c2n1CC1CC1)n3C [Example 27, (R)-2-(6-(2-aminopropyl)-1-methyl-5-oxo-5,6,7,8-tetrahydro-1H-imidazo[4,5-g]isoquinolin-2-yl)-1-(cyclopropylmethyl)-1H-indole-7-carbonitrile]
> 1000 nM	COCC(C)n1c(-c2nc3cc4c(cc3n2C)CCN(C[C@H](N)CF)C4=O)cc2cccc(OC)c21 (single isomer, unassigned) [Example 123a]
> 1000 nM	Cn1c(-c2cc3ccccc3n2Cc2ccon2)nc2cc3c(cc21)CCN(C[C@H](N)CF)C3=O [Example 98, (S)-6-(2-amino-3-fluoropropyl)-2-(1-(isoxazol-3-ylmethyl)-1H-indol-2-yl)-1-methyl-1,6,7,8-tetrahydro-5H-imidazo[4,5-g]isoquinolin-5-one]
> 1000 nM	COCCn1c(-c2nc3cc4c(cc3n2C)CCN(C[C@@H](C)N)C4=O)cc2ccccc21 [Example 76, (R)-6-(2-aminopropyl)-2-(1-(2-methoxyethyl)-1H-indol-2-yl)-1-methyl-1,6,7,8-tetrahydro-5H-imidazo[4,5-g]isoquinolin-5-one]
101 to 500 nM	Cn1c(-c2cc3cccc(OCc4cccnn4)c3n2CC2CC2)nc2cc3c(cc21)CCN(C[C@H](N)CF)C3=O [Example 183, (S)-6-(2-amino-3-fluoropropyl)-2-(1-(cyclopropylmethyl)-7-(pyridazin-3-ylmethoxy)-1H-indol-2-yl)-1-methyl-1,6,7,8-tetrahydro-5H-imidazo[4,5-g]isoquinolin-5-one]
101 to 500 nM	COc1cccc2cc(-c3nc4cc5c(cc4n3C)CCN(C[C@H](N)CF)C5=O)n(Cc3ncc(C)o3)c12 [Example 125, (S)-6-(2-amino-3-fluoropropyl)-2-(7-methoxy-1-((5-methyloxazol-2-yl)methyl)-1H-indol-2-yl)-1-methyl-1,6,7,8-tetrahydro-5H-imidazo[4,5-g]isoquinolin-5-one]
501 to 1000 nM	Cn1c(-c2cc3cccc(OCC4CCOCC4)c3n2CC2CC2)nc2cc3c(cc21)CCN(C[C@H](N)CF)C3=O [Example 161, (S)-6-(2-amino-3-fluoropropyl)-2-(1-(cyclopropylmethyl)-7-((tetrahydro-2H-pyran-4-yl)methoxy)-1H-indol-2-yl)-1-methyl-1,6,7,8-tetrahydro-5H-imidazo[4,5-g]isoquinolin-5-one]
101 to 500 nM	COc1cccc2cc(-c3nc4cc5c(cc4n3C)CCN(C[C@H](N)CF)C5=O)n(Cc3nc(C)no3)c12 [Example 129, (S)-6-(2-amino-3-fluoropropyl)-2-(7-methoxy-1-((3-methyl-1,2,4-oxadiazol-5-yl)methyl)-1H-indol-2-yl)-1-methyl-1,6,7,8-tetrahydro-5H-imidazo[4,5-g]isoquinolin-5-one]
501 to 1000 nM	COC1CC(Cn2c(-c3nc4cc5c(cc4n3C)CCN(C[C@@H](C)N)C5=O)cc3ccccc32)C1 (stereo partly drawn) [Example 75, (R)-6-(2-aminopropyl)-2-(1-((3-methoxycyclobutyl)methyl)-1H-indol-2-yl)-1-methyl-1,6,7,8-tetrahydro-5H-imidazo[4,5-g]isoquinolin-5-one]
501 to 1000 nM	COc1nccc2cc(-c3nc4cc5c(cc4n3C)CCN(C[C@@H](C)N)C5=O)n(CC3CC3)c12 [Example 31, (R)-6-(2-aminopropyl)-2-(1-(cyclopropylmethyl)-7-methoxy-1H-pyrrolo[2,3-c]pyridin-2-yl)-1-methyl-1,6,7,8-tetrahydro-5H-imidazo[4,5-g]isoquinolin-5-one]
101 to 500 nM	C[C@@H](N)CN1CCc2cc3c(cc2C1=O)nc(-c1cc2ccccc2n1CC1CCCC1)n3C [Example 72, (R)-6-(2-aminopropyl)-2-(1-(cyclopentylmethyl)-1H-indol-2-yl)-1-methyl-1,6,7,8-tetrahydro-5H-imidazo[4,5-g]isoquinolin-5-one]
